Measurements from a melting point compilation (Tetko et al.; mined from patent text by program, amines drawn as free bases though some values may be those of a salt).

Row | SMILES | melting point
1 | N#CC1(CCNC(=O)C(Cl)Cl)CCCCC1 | 109 to 114 °C
2 | COCC(OC(C)=O)C1CC(O)C2(C)CCC3C(CCC4=CC(=O)C=C(C)C43C)C12 (stereo not drawn) | 203 to 204 °C
3 | CN(C)c1ccc(S(=O)(=O)N2CCCCC2=O)cc1 | 165 to 170 °C
4 | CCCCCCCCC=CCCCCCCCCCCCCNC(=O)C=CC(=O)O | 55 °C
5 | COCCN(C)c1c(S(=O)(=O)C(F)(F)F)c(C#N)nn1-c1c(Cl)cc(C(F)(F)F)cc1Cl | 75 °C
6 | ON=C1OC2C=CC1CC2 (stereo not drawn) | 153 to 154 °C
7 | COc1cc(COc2nn(-c3ccccc3)cc2C(N)=O)ccc1OCc1nc(-c2ccco2)oc1C | 175 to 176 °C
8 | COC(=O)NC(C)(C)c1ccc(CBr)cc1 | 74 to 76 °C
9 | O=C(O)CCCCc1ccc2cncn2c1 | 168 to 171 °C
10 | COc1ccc(/C=C(/C(=O)OC(C)(C)C)C(=O)c2ccccc2O)cc1 | 129 to 132 °C
11 | COc1cc(-n2nc(C(F)(F)F)cc2-c2ccc(S(C)(=O)=O)cc2)ccc1F | 159 to 160 °C
12 | NC1=NCC(COc2cccc(C(F)(F)F)c2)O1 (stereo not drawn) | 10 °C
13 | Cn1ncnc1COc1nc2c(cc1CC(C)(C)C)nnn2-c1ccccc1F | 130 to 133 °C
14 | Cc1ccc(-c2ccc(C(=O)Nc3cc4ncc(CN5CCCC5)cc4cc3C)cc2F)cc1 | 175 to 178 °C
15 | CCCCS(=O)c1ccc(C=O)nc1 (stereo not drawn) | 90 to 91 °C
16 | O=C(O)Cn1c(=O)n(CCCCN2CCC(OC(c3ccccc3)c3ccccc3)CC2)c(=O)c2ccccc21 | 153 to 155 °C
17 | COc1ccc(NC(=O)[C@H]2[C@H](c3ccc(S(N)(=O)=O)cc3)C23CCCC3)c(OC)n1 (relative stereo) | 112 to 115 °C
18 | CC(=NNC(=O)c1ccccc1)c1sc(C)nc1C | 138 °C
19 | Cc1ccc(Cc2cnc(CCCSCc3cc(CN(C)C)ccn3)[nH]c2=O)cn1 | 110 to 112 °C
20 | CCc1noc(C)c1-c1[nH]c2ccccc2c1C(=O)CCC(=O)O | 98 to 110 °C
21 | CCCn1c(-c2ccccc2)nc2cc(C(=O)OC)ccc21 | 79.8 °C
22 | CCCCNC(=O)NS(=O)(=O)c1ccc(CCNC(=O)N2CC(C)=C(C)C2=O)cc1 | 198 to 200 °C
23 | CCc1ccc(S(=O)(=O)NC(C)(C)C)o1 | 71 to 72 °C
24 | CCN1CCNC(=O)C1c1ccc(Nc2nc(Br)cn(C)c2=O)cc1 (stereo not drawn) | 152 to 153 °C
25 | COc1ccc(C(O)c2cccc3c2ccn3S(=O)(=O)c2ccc(C)cc2)cc1 (stereo not drawn) | 90 °C

Row | SMILES | melting point
26 | CC(=O)Nc1nc(O)c2cc(C=Cc3ccc(C(=O)OC(C)=O)cc3)cnc2n1 | > 300 °C
27 | CC1Cc2ccc(Br)cc2C(c2ccc(N)cc2)=NN1C(N)=O (stereo not drawn) | 218 to 221 °C
28 | CC(=O)Nc1ccc(OCCN(CC(=O)c2ccc(OCc3ccccc3)c(OCc3ccccc3)c2)Cc2ccccc2)cc1 | 104 to 106 °C
29 | C=CCOCc1c(C=O)sc2c(=O)c(C(=O)NCc3ccc(Cl)cc3)cn(C)c12 | 144 to 147 °C
30 | CCCc1c(OCCCCCOc2ccc(-c3cc4ccccc4c(=O)o3)cc2CCC(=O)OCC)ccc2c1OCCC2=O | 144 °C
31 | Cc1c(F)c(N2CCC(N)C2)c(F)c2c1c(=O)c(C(=O)O)cn2-c1ccc(F)cc1F (stereo not drawn) | 230 to 232 °C
32 | CS(=O)(=O)c1ccc(-c2cnn(Cc3c(F)c(F)c(F)c(F)c3F)c(=O)c2-c2ccc(F)cc2)cc1 | 115 to 116 °C
33 | O=Cc1c(OCc2ccccc2)ccc2ccccc12 | 120 to 121 °C
34 | CCOc1cc(-c2cc(C(F)(F)F)n3ncc(C(=O)Nc4cccc(S(=O)(=O)NC5CC5)c4)c3n2)ccc1C(F)(F)F | 225 °C
35 | CCC(O)(CC)[C@H](C[C@H](O)[C@H](CC1CCCCC1)NC(=O)OC(C)(C)C)C(=O)NC | 152 to 155 °C
36 | Cc1cc(=O)n(CCBr)o1 | 39 to 40 °C
37 | COC(=O)CCCCCCc1ncsc1C(=O)O | 113 to 114 °C
38 | C=CCOC(=O)C=CC(=O)NC(N)=O | 108 to 110 °C
39 | CC(C)(C)NC(=O)C(NC(C)(C)C)=C1CCCC1 | 80 to 83 °C
40 | CCN(Cc1ccccc1)C(=O)Cc1c(-c2ccc(C)cc2)nc2cc(C)ccn12 | 220 to 222 °C
41 | Cc1ccc(S(=O)(=O)OCCN(CCOS(=O)(=O)c2ccc(C)cc2)Sc2ccccc2[N+](=O)[O-])cc1 | 91 to 93 °C
42 | COc1cccc(N2CCN(CCCO)CC2)c1 | 87 to 89 °C
43 | CCN(CC)C(=O)CCc1nc(-c2ccccc2)nc2c(C)cccc12 | 80 °C
44 | CCOC[C@]1(OC)CC[C@H]2[C@@H]3CCC4=CC(=O)CCC4=C3[C@@H](c3ccc(C(C)=O)cc3)C[C@@]21C | 134 to 137 °C
45 | CCN(CCCN1C(=O)c2cc(OC)ccc2C(C)(C)C1=O)CCCN1C(=O)c2cc(OC)ccc2C(C)(C)C1=O | 141 to 143 °C
46 | CC(C)(C)OC(=O)C[C@H](NC(=O)CNC(=O)c1csc(NC(=O)NCc2ccccc2)n1)C(=O)NCc1ccccn1 | 108 °C
47 | Cc1cc(-c2cc(C(F)(F)F)n3ncc(C(=O)Nc4cccc(S(=O)(=O)N5CCN(C)CC5)c4)c3n2)ccc1C(F)(F)F | 199 °C
48 | Oc1ccc(C2CC(c3ccccc3)=NN2c2ccccc2)cc1 (stereo not drawn) | 144 to 145 °C
49 | CSC(CC(=O)O)c1ccccc1 (stereo not drawn) | 75 to 77 °C

The next lines start with the values.

Row | melting point | SMILES
50 | 171 to 173 °C | COc1ccc(C(=O)C=Cc2ccc([N+](=O)[O-])cc2)cc1
51 | 157 to 158 °C | S=C=Nc1ccc2nccnc2c1Br
52 | 66 to 67 °C | COc1ccc(Cc2cc(OC)c(OC)c(OC)c2)cc1
53 | 201 to 203 °C | COc1sc(-c2csc(C(N)=O)n2)c(Cl)c1C
54 | 138 to 139 °C | COc1c([N+](=O)[O-])cc(Br)c2c1C(=O)CC2
55 | 180 to 183 °C | CC(=O)C(Cl)=NNc1ccc([N+](=O)[O-])cc1
56 | 124 to 125 °C | Cc1ccc(OCC(=O)c2cc(C(C)C)c(O)c(C(C)C)c2)cc1
57 | 130 to 132 °C | O=C(OCCN1CCNC1=O)c1ccccc1
58 | 221 to 230 °C | COc1cc2ncnc(Sc3cccc(O)c3)c2cc1OC
59 | 134 °C | Cn1c(=NN)sc2ccccc21
60 | 106 to 108 °C | CC(=O)Nc1nc(CCc2ccc(CCCN)s2)cs1
61 | 278 to 279 °C | COc1ccc2c(=O)sc(C(=O)O)cc2c1
62 | 83 to 85 °C | O=C(O)CCc1ccc(Cl)cc1F
63 | 166 °C | CCN(CC)S(=O)(=O)c1cc(-c2csc(=Nc3ccccc3C)n2C)ccc1Cl
64 | 98 to 101 °C | CC(C)(C)OC(=O)N1CC=C(c2nc3c(Cl)cccc3s2)CC1
65 | 241 to 242 °C | O=c1cc(CO)nc2ccn(-c3ccccc3)n12
66 | 103 to 105 °C | O=C(COc1ccc(Cl)cc1Cl)C(=C1SCCCN1Cl)[N+](=O)[O-]
67 | 209 to 210 °C | NC(=O)c1cc(F)c(N[C@H]2CC[C@H](N)CC2)cc1F
68 | 94 to 97 °C | CCOC(=O)CNC(=O)N1CCn2c(c(C(N)=O)c(Cl)c2-c2ccccc2)C1
69 | 267 to 270 °C | COc1cc2ncnc(N3CCN(C(=O)Nc4cc(Cl)nc(Cl)c4)CC3)c2cc1OC
70 | 118 to 119 °C | Clc1ccc(-c2cnccn2)cc1Cl
71 | 211 to 213 °C | O=C(O)CCn1nc(-c2c(-c3ccccc3)nn3ccccc23)cc1O
72 | 204 to 206 °C | CSc1nc2cc(Cl)c(Cl)cc2n1C1OC(CO)C(O)C1O (stereo not drawn)
73 | 83.5 to 86.5 °C | CCOC(Oc1cc(Cl)cc(Cl)c1)C(=O)O (stereo not drawn)
74 | 121 to 123 °C | N#Cc1cc(Cl)c(N)c(I)c1
75 | 217 to 218 °C | O=Cc1cc(O)c(O)cc1Cl
76 | 66 to 67 °C | N#CCCNC(=O)c1cccc(-c2cccc3c(F)c(Cc4cccc(C(F)(F)F)c4)sc23)c1

Row | melting point | SMILES
77 | 203 to 205 °C | CS(=O)(=O)Nc1ccc(F)c(C(=O)O)c1
78 | 242 to 243 °C | CC1(C)OC(=S)Nc2ccc(-c3csc(C#N)c3)cc21
79 | 245 to 250 °C | CC(=O)OC1CCN(c2ccc3[nH]c(=O)ccc3c2)CC1
80 | 154 to 156 °C | CCC1(CCCCN2CCN(c3ccccn3)CC2)C(=O)Nc2ccc(Cl)cc21 (stereo not drawn)
81 | 176 to 177 °C | O=C1NC(=O)C(CC#Cc2ccc(Cl)cc2)(S(=O)(=O)c2ccc(F)cc2)S1 (stereo not drawn)
82 | 130 to 132 °C | CCCc1nc(C#N)c(C#N)nc1Oc1ccccc1
83 | 80 to 82 °C | O=C1c2cc(F)ccc2OC[C@H]2CCCN12
84 | 194 to 195 °C | CC(C)(C(N)=O)c1cn2nc(Cl)ccc2n1
85 | 124 to 126 °C | COC(=O)c1ccc(-c2ccc(Cl)cc2)nc1
86 | 156 °C | CS(=O)(=O)c1cc(C(F)(F)F)ccc1C(=O)O
87 | 58 to 60 °C | CCCCCCCCCCOc1cc(N=Nc2ccccc2)ccc1OCC1CC1
88 | 245 to 248 °C | O=Cc1ccc(OC(F)F)c2oc3ccc([N+](=O)[O-])cc3c12
89 | 110 to 111 °C | CCCCOC(=O)c1ccc(Cl)nn1
90 | > 250 °C | Cn1c(=O)n(C(N)=O)c2ccccc21
91 | 158 to 160 °C | COc1ccc(C2=NN(C3CCN(S(=O)(=O)c4cccc(C#N)c4)CC3)C(=O)C(C)(C)C2)cc1OC
92 | 120 to 122 °C | CC1C(=O)Oc2c1cccc2S(=O)c1ccccc1Cl (stereo not drawn)
93 | 208 °C | Cc1ccc(S(=O)(=O)N(C)c2cc(C)cc([N+](=O)[O-])c2N)cc1
94 | 86 to 88 °C | COc1ccc2cc3c(Cl)nn(CCN(C)C)c3nc2c1
95 | > 285 °C | O=C(NN=Cc1ccccc1O)c1cc2ccccc2cc1O
96 | 140 to 142 °C | CCOC(=O)Cc1ccc(NC(=O)C(COc2ccccc2Cl)NS(=O)(=O)c2ccc(I)cc2)cc1 (racemic)
97 | 123 to 125 °C | Oc1c(Cc2ccccc2)cc(Br)c2ccccc12
98 | 216 to 218 °C | O=C1c2cc3nnn(C4CCC4)c(=O)c3cc2OC2CCCN12 (stereo not drawn)
99 | 143 °C | COc1ccc(Cn2c(=O)oc(=O)c3ccccc32)cc1
100 | 189 to 190 °C | COc1ccc2sc3nc(CO)cn3c2c1
101 | 178 to 188 °C | Cc1nccc(-c2cccc(S(=O)(=O)n3c(CCCC(=O)O)cc4nc(Cl)ccc43)c2)n1
102 | 238 to 241 °C | CCOc1ccc2[nH]c3c([N+](=O)[O-])cc([N+](=O)[O-])c(Cl)c3c(=O)c2c1
103 | 220 to 226 °C | Nc1ncc2c(n1)-c1cccnc1CC2
